Common to all, as to type: cell-based
Assay [1] concerns HSV-1. The assay is described as follows: Virus yield reduction assay, inhibition of HSV-1 viral replication in Vero cells. The conditions noted are these: read-out: % Inhibition Against HSV-1 Viral Replication. Here is the method:
(§1) Compounds of the formulas II and III of the present invention are evaluated in an assay to measure the inhibition of HSV-1 viral replication in the presence of drug over a 14-16 hour period. The assay is discussed in detail by Pritchard, M.N. et al. "A Microliter Virus Yield Reduction Assay for the Evaluation of Antiviral Compounds Against Human Cytomegalovirus and Herpes Simplex Virus", J. Virol. Meth., Vol. 28, pp 101-106 (1990). Briefly, 80% confluent monolayers of Vero cells in 24 well plates are infected with low multiplicities of HSV-1 (MOI = .001). After an absorption period of 1 hour at 37 °C, the monolayers are rinsed with culture media and aliquots of compounds diluted into tissue culture media are added for 14-16 hours at 37 °C in a CO2 atmosphere. The growth media is removed and 1 ml of fresh media is added to each well and plates are placed at -70 °C. After a 1-5 day storage period the plates are rapidly thawed, samples are collected on ice and titrated on fresh Vero cell monolayers. Viral plaques are stained with 0.1% crystal violet in 20% alcohol for 10 minutes and are counted. Data are calculated to reflect the percentage of inhibition at indicated concentration relative to infected, non-drug treated controls.

In assay [2] the test system is VZV. The assay is described as follows: Plaque reduction assay, VZV replication in HFF cells over five days. Here is the method: Antiviral activity against VZV are evaluated in an assay to measure the reduction of viral replication in the number viral plaques formed over five days of incubation in the presence of compounds of the present invention. Aliquots of VZV are added for 90 minutes to 24 well plates having HFF cells at 80% confluence to yield approximately 25 plaques for media treated wells. The plates are flicked and dilutions of compounds in tissue culture media at 2 time strength are added (0.5 ml per well). Immediately following the addition of drug 0.5 ml of 1.0% agarose is added to the wells and the plates are gently tapped to aid mixing. This final concentration of agarose (0.5%) is insufficient to solidify at 37 °C and serves as a semi solid overlay medium. Plates are undisturbed for five days. On day 5 the plates are examined microscopically for toxicity and plaques are counted using low power microscopy.

Assay [3] concerns HSV-2. The assay is described as follows: Virus yield reduction assay, inhibition of HSV-2 viral replication (substantially the same assay as for HSV-1). As for the experimental part:
as §1
Compounds of the formulas II and III of the present invention are also evaluated in substantially the same assay as described above to measure the inhibition of HSV-2 viral replication.

[4] abbreviates: Human alphaherpesvirus 1, Vero, 14 h.
The mark [5] stands for this setting: Human alphaherpesvirus 1, 14 h, 5 µm, Vero cells, MOI = .001, 14-16 hours.
Where [6] appears, read: Human alphaherpesvirus 1, 14 h, 30 µm, Vero cells, MOI = .001, 14-16 hours.

Molecules are shown by their SMILES. Like-named read-outs stand apart in the source and are kept apart here. Some results are limits rather than exact numbers.

Consider `Cc1ccc(NC(=S)Nc2ccc(Cl)cc2)cc1NC(=S)Nc1ccc(Cl)cc1` [Example 1, N,N"-(4-methyl-1,3-phenylene)bis[N'-(4-chlorophenyl)thiourea]], for which, in assay [1] (setting [4]), the inhibition at 5 µM was less than 0% and the inhibition at 30 µM fell in the range of 0 to 50%.

With `COc1ccc(NC(=O)Nc2ccc([N+](=O)[O-])cc2)cc1NC(=O)Nc1ccc([N+](=O)[O-])cc1` [Example 2, N,N"-(4-methoxy-1,3-phenylene)bis[N'-(4-nitrophenyl)urea]], the inhibition at 5 µM in assay [1] (setting [5]) is less than 0%. The inhibition at 30 µM in assay [1] (setting [6]) lay within 50 to 90%.

As to `COc1ccc(NC(=O)Nc2ccc(Cl)cc2)cc1NC(=O)Nc1ccc(Cl)cc1` [Example 3, N,N"-(4-methoxy-1,3-phenylene)bis[N'-(4-chlorophenyl)urea]], in assay [1] (setting [4]), the inhibition at 5 µM fell in the range of 0 to 50% and the inhibition at 30 µM lay in the range of 0 to 50%.

For the molecule `COc1ccc(NC(=O)Nc2ccc(C)cc2)cc1NC(=O)Nc1ccc(C)cc1` [Example 4, N,N"-(4-methoxy-1,3-phenylene)bis[N'-(p-tolyl)urea]], in assay [1] (setting [4]), the inhibition at 5 µM lay in the range of 0 to 50% and the inhibition at 30 µM was in the range of 0 to 50%.

On to `CSC(=Nc1ccccc1)Nc1ccc(Oc2ccc(NC(=Nc3ccccc3)SC)cc2)cc1` [Example 5, dimethyl N,N"-(oxydi-4,1-phenylene)bis [N'-(phenyl) carbamimidothioate]], for which, in assay [1] (setting [5]), the inhibition at 5 µM was less than 0%. The inhibition at 30 µM in assay [1] (setting [6]) was in the range of 0 to 50%.

As for `COc1ccc(NC(=S)Nc2ccc(Cl)cc2)cc1NC(=S)Nc1ccc(Cl)cc1` [Example 6, N,N"-(4-methoxy-1,3-phenylene)bis[N'-(4-chlorophenyl)thiourea]], in assay [1] (setting [4]), the inhibition at 5 µM is less than 0% and the inhibition at 30 µM lay within 0 to 50%.

With `COc1ccc(NC(=S)Nc2ccc([N+](=O)[O-])cc2)cc1NC(=S)Nc1ccc([N+](=O)[O-])cc1` [Example 7, N,N"-(4-methoxy-1,3-phenylene)bis[N'-(4-nitrophenyl)thiourea]], the inhibition at 5 µM in assay [1] (setting [5]) was less than 0%. The inhibition at 30 µM in assay [1] (setting [6]) was in the range of 0 to 50%.

As for `CSC(=Nc1ccc([N+](=O)[O-])cc1)Nc1ccc(Oc2ccc(NC(=Nc3ccc([N+](=O)[O-])cc3)SC)cc2)cc1` [Example 8, dimethyl N,N"-(oxydi-4,1-phenylene)bis[N'-(4-nitrophenyl)carbamimidothioate]], in assay [1] (setting [5]), the inhibition at 5 µM is less than 0%. The inhibition at 30 µM in assay [1] (setting [6]) is 0 to 50%.

Consider `COc1cccc(NS(=O)(=O)c2ccc(Oc3ccc(S(=O)(=O)Nc4cccc(OC)c4)cc3)cc2)c1` [Example 9, bis[N-(3-methoxyphenyl)aminosulfonyl](oxydi-4,1-phenylene)], for which, in assay [1] (setting [4]), the inhibition at 5 µM was in the range of 0 to 50% and the inhibition at 30 µM is greater than 90%.

As for `Cc1ccc(NS(=O)(=O)c2cccc(S(=O)(=O)Nc3ccc(C)cc3)c2)cc1` [Example 10, N,N"-(1,3-phenylene)bis[N-(p-tolyl)aminosulfonyl]], in assay [1] (setting [4]), the inhibition at 5 µM was in the range of 0 to 50% and the inhibition at 30 µM was in the range of 50 to 90%.

`Cc1cccc(NS(=O)(=O)c2ccc(Oc3ccc(S(=O)(=O)Nc4cccc(C)c4)cc3)cc2)c1` [Example 11, bis[N-(3-methylphenyl)aminosulfonyl](oxydi-4,1-phenylene)]: in assay [1] (setting [4]), the inhibition at 5 µM was less than 0% and the inhibition at 30 µM lay in the range of 50 to 90%.

`CSC(=NCCc1ccccc1)Nc1ccc(Oc2ccc(NC(=NCCc3ccccc3)SC)cc2)cc1` [Example 12, dimethyl N,N"-(oxydi-4,1-phenylene)bis[N'-(2-phenylethyl)carbamimidothioate]]: the “% Inhibition Against VZV Viral Replication” value in assay [2] (2µm) is listed as “+++ (>90% inhibition at the indicated concentration)”. Further, the figures for the “% Inhibition Against HSV-2 Viral Replication” value in assay [3] (1µm) and in assay [3] (10 µm) were “+ (<50% inhibition at the indicated concentration)” and “++ (> 50% inhibition at the indicated concentration)”, respectively. Moreover, the inhibition at 5 µM in assay [1] (setting [5]) lay in the range of 50 to 90%. Also, in assay [1] (setting [6]), the inhibition at 30 µM is greater than 90%.

Consider `N=C(Nc1ccc(Cc2ccc(NC(=N)c3ccccc3)cc2)cc1)c1ccccc1` [Example 13, N,N"-(methylenedi-4,1-phenylene)bis [benzenecarboximidamide]], for which the “% Inhibition Against VZV Viral Replication” value in assay [2] (2µm) is given as “+ (<50% inhibition at the indicated concentration)”. The figures for the “% Inhibition Against HSV-2 Viral Replication” value in assay [3] (1µm) and in assay [3] (10 µm) were “+ (<50% inhibition at the indicated concentration)” and “+++ (>90% inhibition at the indicated concentration)”, respectively. Also, the inhibition at 5 µM in assay [1] (setting [4]) was 0 to 50%. Besides, the inhibition at 30 µM in assay [1] (setting [4]) is greater than 90%.

Turning to `O=[N+]([O-])c1ccc(NC(=S)Nc2ccc(Oc3ccc(NC(=S)Nc4ccc([N+](=O)[O-])cc4)cc3)cc2)cc1` [Example 14, N,N"-(oxydi-4,1-phenylene)bis[N'-(4-nitrophenyl)thiourea]], the inhibition at 5 µM in assay [1] (setting [5]) was less than 0%. Also, the inhibition at 30 µM in assay [1] (setting [6]) was 0 to 50%.

Consider `S=C(NCCc1ccccc1)Nc1ccc(Oc2ccc(NC(=S)NCCc3ccccc3)cc2)cc1` [Example 15, N,N''-(oxydi-4,1-phenylene)bis[N'-(2-phenylethyl)thiourea]], for which the “% Inhibition Against VZV Viral Replication” value in assay [2] (2µm) was “+++ (>90% inhibition at the indicated concentration)”. Besides, the “% Inhibition Against HSV-2 Viral Replication” value in assay [3] (1µm) was “+ (<50% inhibition at the indicated concentration)”. Also, the “% Inhibition Against HSV-2 Viral Replication” value in assay [3] (10 µm) was “+ (<50% inhibition at the indicated concentration)”. Also, in assay [1] (setting [4]), the inhibition at 5 µM is 0 to 50% and the inhibition at 30 µM fell in the range of 0 to 50%.

Turning to `O=C(Nc1ccc(Oc2ccc(NC(=O)c3ccco3)cc2)cc1)c1ccco1` [Example 16, N,N"-(oxydi-4,1-phenylene)bis(2-furancarboxamide)], in assay [1] (setting [4]), the inhibition at 5 µM lay within 0 to 50% and the inhibition at 30 µM fell in the range of 50 to 90%.

Turning to `O=S(=O)(c1ccc(OCc2ccc(Cl)cc2)cc1)c1ccc(OCc2ccc(Cl)cc2)cc1` [Example 17, bis(4-chlorobenzyloxy)(sulfonyldi-4,1-phenylene)], in assay [2] (2µm), the “% Inhibition Against VZV Viral Replication” value was “++ (> 50% inhibition at the indicated concentration)”. Moreover, the “% Inhibition Against HSV-2 Viral Replication” value in assay [3] (1µm) and in assay [3] (10 µm) was “++ (> 50% inhibition at the indicated concentration)” throughout. In addition, the inhibition at 5 µM in assay [1] (setting [4]) was 0 to 50%. Also, in assay [1] (setting [4]), the inhibition at 30 µM was 50 to 90%.

Take `O=S(=O)(c1ccc(OCc2ccc(Br)cc2)cc1)c1ccc(OCc2ccc(Br)cc2)cc1` [Example 18, bis(4-bromobenzyloxy)(sulfonyldi-4,1-phenylene)]: the “% Inhibition Against VZV Viral Replication” value in assay [2] (10µm) is “+++ (>90% inhibition at the indicated concentration)”. Moreover, in assay [1] (setting [4]), the inhibition at 5 µM is 0 to 50% and the inhibition at 30 µM lay within 50 to 90%.

In the case of `O=S(=O)(c1ccc(OCc2ccncc2)cc1)c1ccc(OCc2ccncc2)cc1` [Example 19, bis[(4-pyridyl)methoxy](sulfonyldi-4,1-phenylene)], in assay [1] (setting [4]), the inhibition at 5 µM lay within 0 to 50% and the inhibition at 30 µM was in the range of 0 to 50%.

Take `O=S(=O)(c1ccc(OCc2ccc(F)cc2)cc1)c1ccc(OCc2ccc(F)cc2)cc1` [Example 20, bis(4-fluorobenzyloxy)(sulfonyldi-4,1-phenylene)]: in assay [1] (setting [4]), the inhibition at 5 µM lay within 0 to 50% and the inhibition at 30 µM was in the range of 50 to 90%.

`O=[N+]([O-])c1ccc(COc2ccc(S(=O)(=O)c3ccc(O)cc3)cc2)cc1` [Example 21, hydroxy(4-nitrobenzyloxy)(sulfonyldi-4,1-phenylene)]: in assay [1] (setting [4]), the inhibition at 5 µM is less than 0% and the inhibition at 30 µM fell in the range of 50 to 90%.

On to `O=S(=O)(c1ccc(O)cc1)c1ccc(OCc2ccc(Cl)cc2)cc1` [Example 22, (4-chlorobenzyloxy)hydroxy(sulfonyldi-4,1-phenylene)], for which, in assay [1] (setting [4]), the inhibition at 5 µM is less than 0% and the inhibition at 30 µM was in the range of 50 to 90%.

Take `O=[N+]([O-])c1ccc(NC(=S)Nc2ccc(Cc3ccc(NC(=S)Nc4ccc([N+](=O)[O-])cc4)cc3)cc2)cc1` [Example 23, N, N"-(methylenedi-4,1-phenylene)bis[N'-(4-nitrophenyl)thiourea]]: the “% Inhibition Against VZV Viral Replication” value in assay [2] (10µm) is “+ (<50% inhibition at the indicated concentration)”. Besides, the inhibition at 5 µM in assay [1] (setting [5]) was less than 0%. The inhibition at 30 µM in assay [1] (setting [6]) was greater than 90%.

For the origin of these results see EP1148048A2, “Polyaromatic antiviral compositions” (PHARMACIA & UPJOHN COMPANY, priority 1997, dated 1998).
